# Reference: ChEMBL document CHEMBL4800727 (2021)
# Experiments:
# [1] = target: Protein kinase C beta type (Homo sapiens) (UniProt P05771); experiment: protein kinase C, beta 1 Millipore kinase panel; details: Compound concentration 10.0 uM
# [2] = target: Histamine H2 receptor (Homo sapiens) (UniProt P25021); details: Compound concentration 10.0 uM
# [3] = target: Mitogen-activated protein kinase kinase kinase 5 (Homo sapiens) (UniProt Q99683); experiment: mitogen-activated protein kinase kinase kinase 5 Millipore kinase panel; details: Compound concentration 10.0 uM
# [4] = target: Serine/threonine-protein kinase VRK2 (Homo sapiens) (UniProt Q86Y07); experiment: vaccinia related kinase 2 Millipore kinase panel; details: Compound concentration 10.0 uM
# [5] = target: Serine/threonine-protein kinase DCLK2 (Homo sapiens) (UniProt Q8N568); experiment: doublecortin-like kinase 2 Millipore kinase panel; details: Compound concentration 10.0 uM
# [6] = target: Translocator protein (Homo sapiens) (UniProt P30536); experiment: hTSPO Cerep panel; details: Compound concentration 10.0 uM
# [7] = target: Mitogen-activated protein kinase kinase kinase kinase 2 (Homo sapiens) (UniProt Q12851); experiment: mitogen-activated protein kinase kinase kinase kinase 2 Millipore kinase panel; details: Compound concentration 10.0 uM
# [8] = target: Alpha-1A adrenergic receptor (Rattus norvegicus) (UniProt P43140); experiment: rAa1 Cerep panel; details: Compound concentration 10.0 uM
# [9] = target: Ephrin type-B receptor 1 (Homo sapiens) (UniProt P54762); experiment: EPH receptor B1 Millipore kinase panel; details: Compound concentration 10.0 uM
# [10] = target: Neuronal acetylcholine receptor; alpha4/beta2 (Homo sapiens) (UniProt P17787+P43681); experiment: hNneuronala4b2 Cerep panel; details: Compound concentration 10.0 uM
# [11] = target: 5-hydroxytryptamine receptor 2B (Homo sapiens, UniProt P41595); experiment: GPCRScan assay: inhibition of 5-HT2B; set-up: radioligand conc. used [nm] 1.0 – 2.0, parental cells stable HEK
# [12] = target: Inhibitor of nuclear factor kappa-B kinase subunit alpha (Homo sapiens) (UniProt O15111); experiment: conserved helix-loop-helix ubiquitous kinase Millipore kinase panel; details: Compound concentration 10.0 uM
# [13] = target: Phosphatidylinositol 4,5-bisphosphate 3-kinase catalytic subunit beta isoform (Homo sapiens) (UniProt P42338); experiment: phosphoinositide-3-kinase, catalytic, beta polypeptide Millipore kinase panel; details: Compound concentration 10.0 uM
# [14] = species: Rattus norvegicus; experiment: rSLC6/GABA Cerep panel; details: Compound concentration 10.0 uM
# [15] = target: Mitogen-activated protein kinase 10 (Homo sapiens) (UniProt P53779); experiment: mitogen-activated protein kinase 10 Millipore kinase panel; details: Compound concentration 10.0 uM
# [16] = PPAR1C Cerep panel; details: Compound concentration 10.0 uM
# [17] = target: cGMP-inhibited 3',5'-cyclic phosphodiesterase 3A (Homo sapiens, UniProt Q14432); experiment: hPDE3A Cerep panel; details: Compound concentration 10.0 uM
# [18] = target: CDK6/cyclin D3 (Homo sapiens) (UniProt P30281+Q00534); experiment: cyclin-dependent kinase 6 / cyclinD3 Millipore kinase panel; type: protein-complex assay; details: Compound concentration 10.0 uM
# [19] = target: 3',5'-cyclic-AMP phosphodiesterase 4D (Homo sapiens, UniProt Q08499); experiment: hPDE4D3 PDE scan
# [20] = target: G protein-coupled receptor kinase 6 (Homo sapiens) (UniProt P43250); experiment: G protein-coupled receptor kinase 6 Millipore kinase panel; details: Compound concentration 10.0 uM
# [21] = target: Macrophage-stimulating protein receptor (Homo sapiens) (UniProt Q04912); experiment: macrophage stimulating 1 receptor Millipore kinase panel; details: Compound concentration 10.0 uM
# [22] = target: Fibroblast growth factor receptor 1 (Homo sapiens) (UniProt P11362); experiment: fibroblast growth factor receptor 1 Millipore kinase panel; details: Compound concentration 10.0 uM
# [23] = target: Dual specificity calcium/calmodulin-dependent 3',5'-cyclic nucleotide phosphodiesterase 1B (Homo sapiens, UniProt Q01064); experiment: hPDE1B1 PDE scan
# [24] = target: T1, Alpha-2B adrenergic receptor (Homo sapiens) (UniProt P18089); experiment: hAb2 Cerep panel; details: Compound concentration 10.0 uM
# T1 sequence (whole entry): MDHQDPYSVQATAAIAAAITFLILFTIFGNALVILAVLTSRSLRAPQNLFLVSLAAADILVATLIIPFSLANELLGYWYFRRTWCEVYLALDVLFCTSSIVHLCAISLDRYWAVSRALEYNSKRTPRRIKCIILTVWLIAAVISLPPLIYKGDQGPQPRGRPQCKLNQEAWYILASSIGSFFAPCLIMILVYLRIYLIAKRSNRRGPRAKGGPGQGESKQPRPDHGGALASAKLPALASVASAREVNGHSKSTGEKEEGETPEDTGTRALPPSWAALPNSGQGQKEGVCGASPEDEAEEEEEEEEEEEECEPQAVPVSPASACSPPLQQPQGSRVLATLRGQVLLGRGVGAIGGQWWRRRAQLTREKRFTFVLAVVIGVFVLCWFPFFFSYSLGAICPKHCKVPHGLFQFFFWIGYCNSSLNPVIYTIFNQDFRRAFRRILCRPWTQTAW
# [25] = species: Rattus norvegicus; experiment: rGlutamate (ionotropic) kanic acid Cerep panel; details: Compound concentration 10.0 uM
# [26] = target: Histamine H4 receptor (Homo sapiens) (UniProt Q9H3N8); details: Compound concentration 10.0 uM
# [27] = target: Serine/threonine-protein kinase Sgk3 (Homo sapiens) (UniProt Q96BR1); experiment: serum/glucocorticoid regulated kinase family, member 3 Millipore kinase panel; details: Compound concentration 10.0 uM
# [28] = target: Sodium-dependent noradrenaline transporter (Homo sapiens) (UniProt P23975); experiment: hNET Cerep panel; details: Compound concentration 10.0 uM
# [29] = target: Melanocortin receptor 4 (Homo sapiens) (UniProt P32245); experiment: hMC4 Cerep panel; details: Compound concentration 10.0 uM
# [30] = target: Ephrin type-A receptor 3 (Homo sapiens) (UniProt P29320); experiment: EPH receptor A3 Millipore kinase panel; details: Compound concentration 10.0 uM
# [31] = target: Insulin receptor-related protein (Homo sapiens) (UniProt P14616); experiment: insulin receptor-related receptor Millipore kinase panel; details: Compound concentration 10.0 uM
# [32] = target: Glutamate receptor ionotropic, AMPA (Rattus norvegicus) (UniProt P19491+P19492+P19493+P19490); experiment: rGlutamate (ionotropic) AMPA Cerep panel; type: protein-complex assay; details: Compound concentration 10.0 uM
# [33] = target: cGMP-dependent 3',5'-cyclic phosphodiesterase (Homo sapiens, UniProt O00408); experiment: hPDE2A PDE scan
# [34] = cML1 Cerep panel; details: Compound concentration 10.0 uM
# [35] = target: Tyrosine-protein kinase HCK (Homo sapiens) (UniProt P08631); experiment: hemopoietic cell kinase Millipore kinase panel; details: Compound concentration 10.0 uM
# [36] = target: Activated CDC42 kinase 1 (Homo sapiens) (UniProt Q07912); experiment: tyrosine kinase, non-receptor, 2 Millipore kinase panel; details: Compound concentration 10.0 uM
# [37] = target: Cyclin-dependent kinase 5/CDK5 activator 1 (Homo sapiens) (UniProt Q00535+Q15078); experiment: cyclin-dependent kinase 5 / p25 Millipore kinase panel; type: protein-complex assay; details: Compound concentration 10.0 uM
# [38] = target: T2, 5-hydroxytryptamine receptor 7 (Homo sapiens, UniProt P34969); experiment: GPCRScan assay: inhibition of 5-HT7A; set-up: radioligand conc. used [nm] 5.0 – 6.0, parental cells Stable HEK
# [39] = target: cAMP and cAMP-inhibited cGMP 3',5'-cyclic phosphodiesterase 10A (Homo sapiens, UniProt Q9Y233); experiment: hPDE10A2 PDE scan
# [40] = target: Rho-associated protein kinase 2 (Homo sapiens) (UniProt O75116); experiment: Rho-associated, coiled-coil containing protein kinase 2 Millipore kinase panel; details: Compound concentration 10.0 uM
# [41] = target: Vascular endothelial growth factor receptor 2 (Homo sapiens) (UniProt P35968); experiment: kinase insert domain receptor Millipore kinase panel; details: Compound concentration 10.0 uM
# [42] = target: Tyrosine-protein kinase Yes (Homo sapiens) (UniProt P07947); experiment: v-yes-1 Yamaguchi sarcoma viral oncogene homolog 1 Millipore kinase panel; details: Compound concentration 10.0 uM
# [43] = target: T2, 5-hydroxytryptamine receptor 7; experiment: h5HT7 Cerep panel; details: Compound concentration 10.0 uM
# [44] = target: D(2) dopamine receptor (Homo sapiens) (UniProt P14416); details: Compound concentration 10.0 uM
# [45] = target: GABA-A receptor; anion channel; experiment: GPCRScan assay: inhibition of GABAA; type: protein-complex assay, Rattus norvegicus; set-up: radioligand conc. used [nm] 9.50 – 25.0, parental cells brain tissue
# T2 sequence (P34969 whole entry): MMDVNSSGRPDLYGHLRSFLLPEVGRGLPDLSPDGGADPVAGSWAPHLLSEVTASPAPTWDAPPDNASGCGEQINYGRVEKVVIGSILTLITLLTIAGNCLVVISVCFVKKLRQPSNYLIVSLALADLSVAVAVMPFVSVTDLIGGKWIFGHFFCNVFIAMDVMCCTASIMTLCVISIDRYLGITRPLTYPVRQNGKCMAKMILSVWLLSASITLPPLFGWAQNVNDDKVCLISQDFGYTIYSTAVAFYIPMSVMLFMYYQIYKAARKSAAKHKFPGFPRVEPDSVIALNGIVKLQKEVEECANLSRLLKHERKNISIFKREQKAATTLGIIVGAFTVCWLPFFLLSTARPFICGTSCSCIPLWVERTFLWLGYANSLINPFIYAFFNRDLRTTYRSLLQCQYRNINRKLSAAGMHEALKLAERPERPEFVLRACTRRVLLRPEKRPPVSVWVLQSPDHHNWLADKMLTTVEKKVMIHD
# Sequence of 5-hydroxytryptamine receptor 2B (P41595 whole entry): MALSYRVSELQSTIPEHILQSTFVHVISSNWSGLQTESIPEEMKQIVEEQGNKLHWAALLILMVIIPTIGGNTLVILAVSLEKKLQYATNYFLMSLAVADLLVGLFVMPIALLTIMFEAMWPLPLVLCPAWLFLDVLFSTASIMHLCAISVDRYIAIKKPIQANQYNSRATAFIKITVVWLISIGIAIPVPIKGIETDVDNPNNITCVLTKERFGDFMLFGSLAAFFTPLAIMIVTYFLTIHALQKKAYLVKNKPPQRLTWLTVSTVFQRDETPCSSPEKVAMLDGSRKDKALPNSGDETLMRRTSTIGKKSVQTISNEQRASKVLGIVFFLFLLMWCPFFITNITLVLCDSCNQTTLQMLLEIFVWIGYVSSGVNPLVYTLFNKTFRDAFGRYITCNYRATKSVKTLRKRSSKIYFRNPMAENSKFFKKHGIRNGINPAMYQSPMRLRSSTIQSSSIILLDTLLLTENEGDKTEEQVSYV
# Sequence of D(2) dopamine receptor (Homo sapiens) (P14416 whole entry): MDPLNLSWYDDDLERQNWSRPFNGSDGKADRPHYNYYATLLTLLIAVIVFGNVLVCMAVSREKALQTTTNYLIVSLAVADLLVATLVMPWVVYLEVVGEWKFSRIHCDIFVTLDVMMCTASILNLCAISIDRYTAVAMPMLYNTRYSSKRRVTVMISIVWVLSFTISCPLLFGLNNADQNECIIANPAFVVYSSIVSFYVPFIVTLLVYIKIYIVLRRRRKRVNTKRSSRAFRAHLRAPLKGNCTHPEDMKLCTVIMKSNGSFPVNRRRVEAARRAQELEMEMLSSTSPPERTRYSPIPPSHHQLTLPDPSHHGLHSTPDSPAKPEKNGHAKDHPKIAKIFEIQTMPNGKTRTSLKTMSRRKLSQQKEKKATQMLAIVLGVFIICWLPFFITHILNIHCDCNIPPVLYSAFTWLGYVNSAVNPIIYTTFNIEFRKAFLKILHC
# Sequence of Ephrin type-B receptor 1 (Homo sapiens) (P54762 whole entry): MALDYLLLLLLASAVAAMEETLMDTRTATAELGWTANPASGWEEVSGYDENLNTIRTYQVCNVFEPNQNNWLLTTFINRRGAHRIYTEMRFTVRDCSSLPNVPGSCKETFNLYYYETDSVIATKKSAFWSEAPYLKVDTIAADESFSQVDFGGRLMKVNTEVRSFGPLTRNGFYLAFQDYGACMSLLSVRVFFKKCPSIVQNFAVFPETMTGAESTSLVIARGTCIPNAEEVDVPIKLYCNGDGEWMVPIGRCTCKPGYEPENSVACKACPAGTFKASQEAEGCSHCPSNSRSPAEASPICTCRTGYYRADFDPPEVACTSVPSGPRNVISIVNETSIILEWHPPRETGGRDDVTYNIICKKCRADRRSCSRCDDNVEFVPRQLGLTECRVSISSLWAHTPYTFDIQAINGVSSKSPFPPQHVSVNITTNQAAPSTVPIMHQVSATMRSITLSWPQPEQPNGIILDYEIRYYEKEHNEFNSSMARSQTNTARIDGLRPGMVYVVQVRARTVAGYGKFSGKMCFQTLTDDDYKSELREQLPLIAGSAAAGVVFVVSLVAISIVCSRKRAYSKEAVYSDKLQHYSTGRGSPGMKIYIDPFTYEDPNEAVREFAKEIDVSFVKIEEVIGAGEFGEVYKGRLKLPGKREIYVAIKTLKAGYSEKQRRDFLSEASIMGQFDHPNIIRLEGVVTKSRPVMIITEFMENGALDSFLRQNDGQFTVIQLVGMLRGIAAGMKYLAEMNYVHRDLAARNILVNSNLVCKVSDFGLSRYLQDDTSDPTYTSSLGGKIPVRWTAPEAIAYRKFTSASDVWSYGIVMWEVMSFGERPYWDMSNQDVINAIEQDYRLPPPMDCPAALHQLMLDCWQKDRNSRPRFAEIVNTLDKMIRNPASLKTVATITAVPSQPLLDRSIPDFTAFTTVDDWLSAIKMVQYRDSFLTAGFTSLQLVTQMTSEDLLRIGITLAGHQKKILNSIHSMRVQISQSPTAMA
# Sequence of Histamine H2 receptor (Homo sapiens) (P25021 whole entry): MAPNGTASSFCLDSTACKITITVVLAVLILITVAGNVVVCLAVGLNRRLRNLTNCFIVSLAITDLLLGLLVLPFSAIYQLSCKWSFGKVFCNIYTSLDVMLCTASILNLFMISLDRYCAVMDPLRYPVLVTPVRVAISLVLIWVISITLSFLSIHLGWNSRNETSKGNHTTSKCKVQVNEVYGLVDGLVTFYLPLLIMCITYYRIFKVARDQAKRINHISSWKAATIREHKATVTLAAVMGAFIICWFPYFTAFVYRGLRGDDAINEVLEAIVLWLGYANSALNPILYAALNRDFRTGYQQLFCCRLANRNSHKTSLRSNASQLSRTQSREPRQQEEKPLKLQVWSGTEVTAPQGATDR
# Sequence of Mitogen-activated protein kinase 10 (Homo sapiens) (P53779 whole entry): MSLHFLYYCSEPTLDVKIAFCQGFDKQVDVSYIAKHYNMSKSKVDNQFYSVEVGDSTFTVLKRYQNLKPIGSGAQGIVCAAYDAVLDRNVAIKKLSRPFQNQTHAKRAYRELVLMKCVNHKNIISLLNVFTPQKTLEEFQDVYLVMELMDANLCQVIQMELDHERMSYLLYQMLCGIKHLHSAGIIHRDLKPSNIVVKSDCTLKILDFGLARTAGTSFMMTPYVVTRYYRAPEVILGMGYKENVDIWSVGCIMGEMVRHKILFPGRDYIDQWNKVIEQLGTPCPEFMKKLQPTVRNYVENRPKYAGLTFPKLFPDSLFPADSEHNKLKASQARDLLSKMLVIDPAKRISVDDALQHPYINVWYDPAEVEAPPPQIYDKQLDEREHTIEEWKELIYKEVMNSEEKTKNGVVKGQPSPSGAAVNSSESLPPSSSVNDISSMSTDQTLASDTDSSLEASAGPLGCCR
# Sequence of cGMP-inhibited 3',5'-cyclic phosphodiesterase 3A (Q14432 whole entry): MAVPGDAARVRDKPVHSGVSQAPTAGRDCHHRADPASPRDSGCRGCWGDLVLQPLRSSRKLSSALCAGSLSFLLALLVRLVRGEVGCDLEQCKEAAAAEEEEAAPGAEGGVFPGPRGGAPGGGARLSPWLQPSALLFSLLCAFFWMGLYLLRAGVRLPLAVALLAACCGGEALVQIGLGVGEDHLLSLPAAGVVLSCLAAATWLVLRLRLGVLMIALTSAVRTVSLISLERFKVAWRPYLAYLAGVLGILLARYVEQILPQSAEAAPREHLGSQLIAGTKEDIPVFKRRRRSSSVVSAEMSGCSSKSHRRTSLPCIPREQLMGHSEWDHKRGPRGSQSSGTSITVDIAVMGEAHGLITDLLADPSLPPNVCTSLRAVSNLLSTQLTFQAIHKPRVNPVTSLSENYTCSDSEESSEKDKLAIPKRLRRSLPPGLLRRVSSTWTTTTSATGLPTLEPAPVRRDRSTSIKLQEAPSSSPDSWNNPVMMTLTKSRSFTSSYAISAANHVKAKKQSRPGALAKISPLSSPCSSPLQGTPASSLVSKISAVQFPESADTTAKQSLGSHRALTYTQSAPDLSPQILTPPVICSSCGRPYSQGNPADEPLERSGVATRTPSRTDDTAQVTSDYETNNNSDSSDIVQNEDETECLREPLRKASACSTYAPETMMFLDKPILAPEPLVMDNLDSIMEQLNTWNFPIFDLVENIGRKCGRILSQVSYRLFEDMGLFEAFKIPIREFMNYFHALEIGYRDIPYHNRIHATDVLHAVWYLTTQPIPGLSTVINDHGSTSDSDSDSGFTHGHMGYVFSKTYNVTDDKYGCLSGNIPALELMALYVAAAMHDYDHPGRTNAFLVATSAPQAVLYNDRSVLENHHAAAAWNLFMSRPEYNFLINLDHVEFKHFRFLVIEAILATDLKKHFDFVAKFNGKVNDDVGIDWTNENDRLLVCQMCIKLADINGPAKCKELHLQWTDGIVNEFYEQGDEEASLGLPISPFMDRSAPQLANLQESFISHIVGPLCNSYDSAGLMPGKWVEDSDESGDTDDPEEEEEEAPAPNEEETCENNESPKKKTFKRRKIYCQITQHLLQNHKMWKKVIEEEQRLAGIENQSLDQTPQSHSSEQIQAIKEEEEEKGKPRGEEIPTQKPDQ
# Sequence of Serine/threonine-protein kinase VRK2 (Homo sapiens) (Q86Y07 whole entry): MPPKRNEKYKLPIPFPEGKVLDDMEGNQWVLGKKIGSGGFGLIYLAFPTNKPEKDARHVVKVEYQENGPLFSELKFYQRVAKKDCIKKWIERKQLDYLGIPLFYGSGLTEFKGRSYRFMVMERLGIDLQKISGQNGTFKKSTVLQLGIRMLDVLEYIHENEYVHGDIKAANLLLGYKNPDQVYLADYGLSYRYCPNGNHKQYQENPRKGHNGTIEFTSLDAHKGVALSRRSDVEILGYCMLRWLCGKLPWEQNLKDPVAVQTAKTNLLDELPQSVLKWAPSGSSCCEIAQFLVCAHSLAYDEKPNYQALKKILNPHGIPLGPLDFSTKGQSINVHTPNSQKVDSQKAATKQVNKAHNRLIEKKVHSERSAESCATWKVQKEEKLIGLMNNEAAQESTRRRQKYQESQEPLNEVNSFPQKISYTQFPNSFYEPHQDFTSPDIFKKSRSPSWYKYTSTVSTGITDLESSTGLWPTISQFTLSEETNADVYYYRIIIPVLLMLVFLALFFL
compound,measurement,setting,value
COCCc1ccc(-c2c(C)nc3c(N4CCOCC4)ccnn23)cn1 [JNJ-42396302],inhibition,[1],-5%
same,inhibition,[2],12.9%
same,inhibition,[3],-2%
same,inhibition,[4],-4%
same,inhibition,[5],-6%
same,effect,[6],2.8%
same,inhibition,[7],-5%
same,effect,[8],-2.55%
same,inhibition,[9],2%
same,effect,[10],-3%
same,Ki,[11]; read-out: Ki,2.29 µM
same,Ki,[11]; read-out: pKi (converted),2.24 µM
same,inhibition,[12],-3%
same,inhibition,[13],1%
same,effect,[14],-6%
same,inhibition,[15],18%
same,effect,[16],-2.05%
same,effect,[17],6%
same,inhibition,[18],0%
same,Ki,[19],15 µM
same,inhibition,[20],3%
same,inhibition,[21],3%
same,inhibition,[22],8%
same,Ki,[23],3.4 µM
same,effect,[24],-4.45%
same,effect,[25],-25.3%
same,inhibition,[26],-1.08%
same,inhibition,[27],1%
same,effect,[28],6.7%
same,effect,[29],6.35%
same,inhibition,[30],4%
same,inhibition,[31],10%
same,effect,[32],7.7%
same,Ki,[33],32 µM
same,effect,[34],-4.5%
same,inhibition,[35],-2%
same,inhibition,[36],0%
same,inhibition,[37],0%
same,Ki,[38],8.74 µM
same,Ki,[39],0.013 µM
same,inhibition,[40],-3%
same,inhibition,[41],-4%
same,inhibition,[42],0%
same,effect,[43],8.6%
c1ccc(C2CCN(c3cnc4c(N5CCOCC5)nccn34)CC2)cc1,inhibition,[44],1.22%
same,Ki,[45],1.82 µM
